Source: PMC6627558, “Structures and Bioactivities of Six New Triterpene Glycosides, Psolusosides E, F, G, H, H1, and I and the Corrected Structure of Psolusoside B from the Sea Cucumber Psolus fabricii” (Marine Drugs, 2019)
Counter-ions that a name gives are not always drawn.

Assays:
[1] = test system: human colorectal adenocarcinoma HT-29 cells; experiment: MTS assay, cell viability of HT-29 cells; assay type: cell-based; details: Homo sapiens, 0–20 μM, 24 h
Method: (§1) The museum tetraploid strain of murine ascite Ehrlich carcinoma cells from the All-Russian Oncology Center (Moscow, Russia) was used. The cells were separated from the ascites, which were collected on day 7 after inoculation in mouse CD-1 line. The cells were washed of the ascites triply and resuspended in RPMI-1640 medium containing 8 μg/mL gentamicin (BioloT, St-Petersburg, Russia). Neuroblastoma Neuro 2A cells were cultured in DMEM medium containing 10% fetal bovine serum (FBS), (BioloT, St-Petersburg, Russia) and normal epithelial JB-6 cells were cultured in DMEM medium containing 5% fetal bovine serum (FBS), (BioloT, St-Petersburg, Russia) and 1% penicillin/streptomycine (Invitrogen). The HT-29 (ATCC # HTB-38) human colon cancer cell line was grown in monolayer in McCoy’s 5A medium supplemented with 10% (v/v) heat-inactivated FBS, 2 mM L-glutamine, and 1% penicillin-streptomycin in a humidified atmosphere containing 5% CO2. Cells were maintained in a sterile environment and kept in an incubator at 5% CO2 and 37 °C to promote growth. HT-29 cells were sub-cultured every 3–4 days by rinsing with phosphate buffered saline (PBS), adding trypsin to detach the cells from the tissue culture flask, and transferring 10%–20% of the harvested cells to a new flask containing fresh growth media.
The HT-29 cells (1.0 × 10^4/well) were seeded in 96-well plates for 24 h at 37 °C in 5% CO2 incubator. The cells were treated with the tested substances at concentrations range from 0 to 20 μM for an additional 24 h. Subsequently, cells were incubated with 15 μL MTS reagent for 3 h and the absorbance in each well was measured at 490/630 nm using microplate reader “Power Wave XS” (Bio Tek, Winooski, VT, USA). All the experiments were repeated three times, and the mean absorbance values were calculated. The results are expressed as the percentage of inhibition that produced a reduction in absorbance by compound’s treatment compared to the non-treated cells (control).

[2] = Cytotoxic activity against ascite form of mouse Ehrlich carcinoma cells (nonspecific esterase / MTT assay); assay type: cell-based; details: ascite form of mouse Ehrlich carcinoma cells; read-out: Cytotoxicity EC50, Ehrlich carcinoma
Method: as §1
(§2) Cytotoxic activity against ascite form of mouse Ehrlich carcinoma cells was investigated by nonspecific esterase activity assay. In total, 10µL of the test substance solution and 100 μL of the cell suspension were placed into each well of a 96-well microplate. The plate was incubated in a CO2 incubator at 37 °C for 1 or 24 h. A stock solution of the probe fluorescein diacetate (FDA; Sigma, St. Louis, MO, USA) in DMSO (1 mg/mL) was prepared. After incubation of the cells with test compounds, 10 μL of FDA solution (50 μg/mL) was added to each well and the plate was incubated at 37 °C for 15 min. Cells were washed with PBS, and fluorescence was measured with a Fluoroskan Ascent plate reader (Thermo Labsystems, Helsinky, Finland) at λex = 485 nm and λem = 518 nm. All experiments were repeated in triplicate. Cytotoxic activity was expressed as the percent of cell viability. Nonspecific esterase activity assay has been used for determination of cytotoxicity against neuroblastoma Neuro 2A and normal epithelial JB-6 cells.
The solutions of tested substances in different concentrations (20 µL) and cell suspension (200 µL) were added in wells of 96-well plate and incubated over night at 37 °C and 5% CO2. After incubation, the cells were sedimented by centrifugation, 200 µL of medium from each well were collected, and 100 µL of pure medium were added. Then, 10 µL of MTT solution […] (Sigma, St. Louis, MO, USA) were added in each well. The plate was incubated for 4 h, after which 100 µL SDS-HCl were added to each well, and the plate was incubated at 37 °C for 4–18 h. Optical density was measured at 570 nm and 630–690 nm. Cytotoxic activity of the substances was calculated as the concentration that caused 50% metabolic cell activity inhibition (IC50). The MTT assay has been used for determination of cytotoxic activity against Ehrlich carcinoma cells.

[3] = Cytotoxicity against neuroblastoma Neuro 2A cells (nonspecific esterase activity assay); assay type: cell-based, mouse; details: mouse neuroblastoma Neuro 2A cells
Method: as §1, §2

[4] = Hemolytic activity against mouse erythrocytes; assay type: cell-based; details: CD-1, mouse erythrocyte suspension, pH 7.4, 24 h at 37 °C, read-out: Cytotoxicity EC50, Erhythrocytes (hemolytic activity)
Method: (§3) Blood was taken from CD-1 mice (18–20 g). The mice were anesthetized with diethyl ether, their chests were rapidly opened, and blood was collected in cold (4 °C) 10 mM phosphate-buffered saline, pH 7.4 (PBS) without anticoagulant. Erythrocytes were washed 3 times in PBS using at least 10 vol. of washing solution by centrifugation (2000 rpm) for 5 min. Erythrocytes were used at a concentration that provided an optical density of 1.0 at 700 nm for a non-hemolyzed sample. Then, 20 μL of a water solution of test substance with a fixed concentration was added to a well of a 96-well plate containing 180 μL of the erythrocyte suspension. Erythrocyte suspension was incubated with substances for 24 h at 37 °C. After that, the optical density of the obtained solutions was measured and ED50 for hemolytic activity of each compound was calculated.

[5] = test system: human colorectal adenocarcinoma HT-29 cells; experiment: Soft agar assay, colony formation and growth of HT-29 cells; assay type: cell-based; details: Homo sapiens, 336 h, 0–10 μM, 14 days, read-out: Soft Agar Assay ICCF50 (inhibition of colony formation)
Method: as §1
The HT-29 cells (8.0 × 10^3) were seeded in 6-well plate and treated with the tested compounds at concentrations range 0–10 μM in 1 mL of 0.3% Basal Medium Eagle (BME) agar containing 10% FBS, 2mM L-glutamine, and 25 μg/mL gentamicin. The cultures were maintained at 37 °C in a 5% CO2 incubator for 14 days, and the cell’s colonies were scored using a microscope “Motic AE 20” (Scientific Instrument Company, Campbell, CA, USA) and the Motic Image Plus version 2.0 (Scientific Instrument Company, Campbell, CA, USA) computer program.

[6] = Cytotoxicity against normal epithelial JB-6 cells (nonspecific esterase activity assay); assay type: cell-based, mouse; details: mouse, normal epithelial JB-6 cells
Method: as §1, §2

[7] = test system: mouse neuroblastoma Neuro 2A cells; experiment: Cytotoxicity against neuroblastoma Neuro 2A cells (nonspecific esterase activity assay); assay type: cell-based; details: Neuro 2A cells
Method: as §1, §2

[8] = test system: normal epithelial JB-6 cells; experiment: Cytotoxicity against normal epithelial JB-6 cells (nonspecific esterase activity assay); assay type: cell-based, mouse; details: JB-6 cells
Method: as §1, §2

mouse erythrocytes = experiment: Hemolytic activity against mouse erythrocytes; assay type: cell-based
Method: as §3

| Compound | IC50 [1] | EC50 [2] | EC50 [3] | EC50 at 24 h [4] | IC50 [5] | EC50 [6] | activity against Neuro 2A cells (in words) [7] | cytotoxicity against normal JB-6 cells (in words) [8] | hemolytic activity (in words) (mouse erythrocytes) |
| --- | --- | --- | --- | --- | --- | --- | --- | --- | --- |
| C=C(C)CCC[C@]1(C)OC(=O)[C@]23CC=C4[C@@H](CC[C@H]5C(C)(C)[C@@H](O[C@@H]6OC[C@@H](O)[C@H](O)[C@H]6O[C@@H]6O[C@H](C)[C@@H](O[C@@H]7O[C@H](COS(=O)(=O)O)[C@@H](O)[C@H](O[C@@H]8O[C@H](CO)[C@@H](O)[C@H](OC)[C@H]8O)[C@H]7O)[C@H](O)[C@H]6O)CC[C@]45C)[C@]2(C)CC(=O)[C@@H]31 [Psolusoside E (2), 3β-O-[3-O-methyl-β-D-glucopyranosyl-(1→3)-6-O-sodium-sulfate-β-D-glucopyranosyl-(1→4)-β-D-quinovopyranosyl-(1→2)-β-D-xylopyranosyl]-16-ketoholosta-9(11),25-diene] | > 20 µM | 55.8 µM | 3.96 µM | 230 nM | 0.1 ± 0.03 µM |  |  |  |  |
| C=C(C)CCC[C@]1(C)OC(=O)[C@]23CC=C4[C@@H](CC[C@H]5C(C)(C)[C@@H](O[C@@H]6OC[C@@H](O)[C@H](O)[C@H]6O[C@@H]6O[C@H](C)[C@@H](O[C@@H]7O[C@H](CO)[C@@H](O)[C@H](O[C@@H]8O[C@H](COS(=O)(=O)O)[C@@H](O)[C@H](OC)[C@H]8O)[C@H]7O)[C@H](O)[C@H]6O)CC[C@]45C)[C@]2(C)CC(=O)[C@@H]31 [Psolusoside F (3), 3β-O-[6-O-sodium-sulfate-3-O-methyl-β-D-glucopyranosyl-(1→3)-β-D-glucopyranosyl-(1→4)-β-D-quinovopyranosyl-(1→2)-β-D-xylopyranosyl]-16-ketoholosta-9(11),25-diene] | > 20 µM | 96.2 µM | 10.8 µM | 2800 nM | 0.5 ± 0.03 µM | 23.8 µM |  |  |  |
| C=C(C)CCC[C@]1(C)OC(=O)[C@]23CC=C4[C@@H](CC[C@H]5C(C)(C)[C@@H](O[C@@H]6OC[C@@H](O)[C@H](O)[C@H]6O[C@@H]6O[C@H](CO)[C@@H](O[C@@H]7O[C@H](COS(=O)(=O)O)[C@@H](O)[C@H](O[C@@H]8O[C@H](COS(=O)(=O)O)[C@@H](O)[C@H](OC)[C@H]8O)[C@H]7O)[C@H](O)[C@H]6O)CC[C@]45C)[C@]2(C)CC(=O)[C@@H]31 [Psolusoside G (4), 3β-O-[6-O-sodium-sulfate-3-O-methyl-β-D-glucopyranosyl-(1→3)-6-O-sodium-sulfate-β-D-glucopyranosyl-(1→4)-β-D-glucopyranosyl-(1→2)-β-D-xylopyranosyl]-16-ketoholosta-9(11),25-diene] |  | 98.3 µM | 7.3 µM | 4200 nM |  | > 100 µM | high activity | not cytotoxic |  |
| C=C(C)CCC[C@]1(C)OC(=O)[C@]23CC[C@@H]4C(=CC[C@H]5C(C)(C)[C@@H](O[C@@H]6OC[C@@H](O)[C@H](O)[C@H]6O[C@@H]6O[C@H](CO)[C@@H](O[C@@H]7O[C@H](COS(=O)(=O)O)[C@@H](O)[C@H](O)[C@H]7O)[C@H](O)[C@H]6O)CC[C@]45C)[C@]2(C)CC[C@@H]31 [Psolusoside H1 (6), 3β-O-[6-O-sodium-sulfate-β-D-glucopyranosyl-(1→4)-β-D-glucopyranosyl-(1→2)-β-D-xylopyranosyl]-holosta-7,25-diene] | > 20 µM | 92.5 µM | 10.7 µM | 2700 nM | 9 ± 0.3 µM | 32.3 µM |  |  |  |
| C=C(C)CCC[C@]1(C)OC(=O)[C@]23CC[C@@H]4C(=CC[C@H]5C(C)(C)[C@@H](O[C@@H]6OC[C@@H](O)[C@H](O)[C@H]6O[C@@H]6O[C@H](CO)[C@@H](O[C@@H]7O[C@H](COS(=O)(=O)O)[C@@H](O)[C@H](O)[C@H]7O)[C@H](O)[C@H]6O)CC[C@]45C)[C@]2(C)CC(=O)[C@@H]31 [Psolusoside H (5), 3β-O-[6-O-sodium-sulfate-β-D-glucopyranosyl-(1→4)-β-D-glucopyranosyl-(1→2)-β-D-xylopyranosyl]-16-ketoholosta-7,25-diene] | > 20 µM | > 100 µM | 47.5 µM | 2500 nM | > 10 µM | 43.2 µM |  |  |  |
| C=C(C)CCC[C@]1(C)OC(=O)[C@]23CC[C@@H]4C(=CC[C@H]5C(C)(C)[C@@H](O[C@@H]6OC[C@@H](O[C@@H]7O[C@H](COS(=O)(=O)O)[C@@H](O)[C@H](O)[C@H]7O)[C@H](O)[C@H]6O[C@@H]6OC[C@@H](O[C@@H]7O[C@H](COS(=O)(=O)O)[C@@H](O)[C@H](O)[C@H]7O)[C@H](O)[C@H]6O)CC[C@]45C)[C@]2(C)C[C@H](OC(C)=O)[C@@H]31 [Psolusoside I (7), 3β-O-{6-O-sodium sulfate-β-D-glucopyranosyl-(1→4)-β-D-xylopyranosyl-(1→2)-[6-O-sodium sulfate-β-D-glucopyranosyl-(1→4)]-β-D-xylopyranosyl}-16β-acetoxyholosta-7,25-diene] | > 20 µM | 87.4 µM | 26.8 µM | 18300 nM | 10 ± 0.4 µM | 37.2 µM |  |  | moderate hemolytic activity |
| C=C(C)CCC[C@](C)(OC(C)=O)[C@H]1[C@@H]2C[C@@]3(C)C4=CC[C@H]5C(C)(C)[C@@H](O[C@@H]6OC[C@@H](O[C@@H]7O[C@H](CO)[C@@H](O)[C@H](O)[C@H]7OS(=O)(=O)O)[C@H](O)[C@H]6O[C@@H]6O[C@H](CO)[C@@H](O[C@@H]7O[C@H](COS(=O)(=O)O)[C@@H](O)[C@H](O)[C@H]7O)[C@H](O)[C@H]6O)CC[C@]5(C)[C@@H]4CC[C@]13C(=O)O2 [psolusoside B (1), 3β-O-{6-O-sodium sulfate-β-D-glucopyranosyl-(1→4)-β-D-glucopyranosyl-(1→2)-[2-O-sodium sulfate-β-D-glucopyranosyl-(1→4)]-β-D-xylopyranosyl}-9βH,20(S)-acetoxylanosta-7,25-diene-18(16)-lactone] | > 20 µM |  |  |  | > 10 µM |  |  |  |  |
